For 32 compounds, IC50 results are on record in patent publication US20190134005A1 (BioMarin Pharmaceutical Inc., priority 2016, published 2019).

Like-named read-outs stand apart in the source and are kept apart here.

The experiment concerns the target T1, human CGT (Homo sapiens, UniProt Q16880).
T1 sequence (Q16880 21-541): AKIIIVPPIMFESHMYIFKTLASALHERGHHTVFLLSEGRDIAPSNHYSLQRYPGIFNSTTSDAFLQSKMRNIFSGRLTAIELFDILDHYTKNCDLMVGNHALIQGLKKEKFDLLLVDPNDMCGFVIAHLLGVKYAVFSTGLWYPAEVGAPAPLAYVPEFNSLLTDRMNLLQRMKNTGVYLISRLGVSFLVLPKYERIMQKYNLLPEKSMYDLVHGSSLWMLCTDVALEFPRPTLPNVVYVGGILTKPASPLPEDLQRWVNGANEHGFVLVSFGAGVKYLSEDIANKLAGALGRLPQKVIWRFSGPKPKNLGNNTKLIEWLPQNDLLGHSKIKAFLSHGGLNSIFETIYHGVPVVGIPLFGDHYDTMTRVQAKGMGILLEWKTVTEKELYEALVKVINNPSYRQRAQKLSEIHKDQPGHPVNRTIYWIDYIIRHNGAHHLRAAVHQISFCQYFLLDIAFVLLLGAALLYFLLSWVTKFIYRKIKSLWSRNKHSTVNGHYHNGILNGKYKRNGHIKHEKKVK
Kind of experiment: Assay 1: CGT Enzymatic Assay (RapidFire/MS/MS, 0.01% Tween 80). Format: biochemical. As to conditions: Table 1, Compounds of Formula (I) and Formula (II), CGT enzymatic assay, read-out: IC50.

Setting [1] is: C6-NBD-dihydro-galactosylceramide readout.

As for `N#Cc1cccc(C2(O)N(c3ccc(Cl)cc3)C(=O)N(c3ccc(Cl)cc3)C23CCC3)c1` (centres unmarked) [Compound 72, 3-(5,7-bis(4-chlorophenyl)-8-hydroxy-6-oxo-5,7-diazaspiro[3.4]octan-8-yl)benzonitrile], the half-maximal inhibitory concentration (IC50) – broadly, the midpoint of a concentration-inhibition curve – is less than 1 µM.
With `COC[C@]1(C)N(c2ccc(Cl)cc2)C(=O)N(c2ccc(Cl)cc2)[C@@]1(O)c1cccc(OC(F)(F)F)c1` [Compound 296-3, (4R,5S)-1,3-bis(4-chlorophenyl)-4-hydroxy-5-(methoxymethyl)-5-methyl-4-(3-(trifluoromethoxy)phenyl)imidazolidin-2-one], the IC50 under setting [1] lay within 1 to 10 µM.
Take `CN(C)CC1N(c2ccc(Cl)cc2)C(=O)N(c2ccc(Cl)cc2)C1(O)c1cccc(OC(F)(F)F)c1` (centres unmarked) [Example 166, 1,3-bis(4-chlorophenyl)-5-((dimethylamino)methyl)-4-hydroxy-4-(3-(trifluoromethoxy)phenyl)imidazolidin-2-one]: the IC50 is less than 1 µM.
Turning to `N#Cc1ccc(N2C(=O)N(c3ccccc3)C(O)(c3cccc(OC(F)(F)F)c3)C23CCC3)cc1` (centres unmarked) [Example 336, 4-(8-hydroxy-6-oxo-7-phenyl-8-(3-(trifluoromethoxy)phenyl)-5,7-diazaspiro[3.4]octan-5-yl)benzonitrile], the half-inhibitory concentration (IC50) under setting [1] was less than 1 µM.
Take `CC(C)(C)c1cccc(C2(O)CN(c3ccc(Cl)cc3)C(=O)N2c2ccc(Cl)cc2)c1` (centres unmarked) [Compound 128, 4-(3-(tert-butyl)phenyl)-1,3-bis(4-chlorophenyl)-4-hydroxyimidazolidin-2-one]: the half-maximal inhibitory concentration (IC50) was 10 to 50 µM.
The same measure, in the same setting: in the case of `COc1cccc(C2(O)[C@@H](C)N(c3ccc(Br)cc3)C(=O)N2c2ccc(Br)cc2)c1` (stereo partly drawn) [Compound 71-2, (5R)-1,3-bis(4-bromophenyl)-4-hydroxy-4-(3-methoxyphenyl)-5-methylimidazolidin-2-one] it was less than 1 µM; in that of `O=C1N(c2ccc(Br)cc2)C(=O)C(O)(c2nccs2)N1c1ccc(Br)cc1` (centres unmarked) [Example 201, 1,3-bis(4-bromophenyl)-5-hydroxy-5-(thiazol-2-yl)imidazolidine-2,4-dione], more than 50 µM.
With `CCCc1c(-c2cccc(OC(F)(F)F)c2)n(-c2ccc(Br)cc2)c(=O)n1-c1ccc(Br)cc1` [Compound 248, 1,3-bis(4-bromophenyl)-4-propyl-5-(3-(trifluoromethoxy)phenyl)-1,3-dihydro-2H-imidazol-2-one], the half-inhibitory concentration (IC50) is less than 1 µM.
Still for that read-out and setting: in the case of `CC1(C(F)(F)F)N(c2ccc(Cl)cc2)C(=O)N(c2ccc(Cl)cc2)C1(O)c1cccc(C#N)c1` (centres unmarked) [Example 177, 3-(1,3-bis(4-chlorophenyl)-4-hydroxy-5-methyl-2-oxo-5-(trifluoromethyl)imidazolidin-4-yl)benzonitrile] it was less than 1 µM; in that of `COc1cccc([C@@]2(C)C(O)N(c3ccc(Br)cc3)C(=O)N2c2ccc(Br)cc2)c1` (single isomer, unassigned) [Compound 126-1], more than 50 µM; in that of `Cc1cc(C)cc(C2(O)CN(c3ccc(Br)cc3)C(=O)N2c2ccc(Br)cc2)c1` (centres unmarked) [Example 33, 1,3-bis(4-bromophenyl)-4-(3,5-dimethylphenyl)-4-hydroxyimidazolidin-2-one], 10 to 50 µM.
The same measure, in the same setting: in the case of `C[C@H]1N(c2ccc(Br)cc2)C(=O)N(c2ccc(Br)cc2)C1(O)c1cccs1` (some centres unmarked) [Example 49-2] it was 1 to 10 µM; in that of `CCC1N(c2ccc(Cl)cc2)C(=O)N(c2ccc(Cl)cc2)C1(O)c1cccc(OC(F)F)c1` (centres unmarked) [Compound 118, 1,3-bis(4-chlorophenyl)-4-(3-(difluoromethoxy)phenyl)-5-ethyl-4-hydroxyimidazolidin-2-one], less than 1 µM; in that of `CC[C@@H]1N(c2ccc(Cl)cc2)C(=O)N(c2ccc(Cl)cc2)C1(O)c1cccc(C(F)(F)F)c1` (stereo partly drawn) [Compound 80-1, (5S)-1,3-bis(4-chlorophenyl)-5-ethyl-4-hydroxy-4-(3-(trifluoromethyl)phenyl)imidazolidin-2-one], less than 1 µM.
The same measure, in the same setting: in the case of `N#Cc1cccc(C2(O)N(c3ccc(Cl)cc3)C(=O)N(c3ccc(Cl)cc3)C23COC3)c1` (centres unmarked) [Compound 151, 3-(5,7-bis(4-chlorophenyl)-8-hydroxy-6-oxo-2-oxa-5,7-diazaspiro[3.4]octan-8-yl)benzonitrile] it was less than 1 µM.
`CC1(c2cccc(C(F)(F)F)c2)C(O)N(c2ccc(Cl)cc2)C(=O)N1c1ccc(Cl)cc1` (centres unmarked) [Example 190, 1,3-bis(4-chlorophenyl)-5-hydroxy-4-methyl-4-(3-(trifluoromethyl)phenyl)imidazolidin-2-one]: the half-maximal inhibitory concentration (IC50) is less than 1 µM.
As for `Cc1ccc(N2C(=O)N(c3ccc(C#N)cc3)C(O)(c3cccc(OC(F)(F)F)c3)C23COC3)cc1` (centres unmarked) [Example 307, 4-(8-hydroxy-6-oxo-5-(p-tolyl)-8-(3-(trifluoromethoxy)phenyl)-2-oxa-5,7-diazaspiro[3.4]octan-7-yl)benzonitrile], the IC50 under setting [1] was less than 1 µM.
Take `O=C1N(c2ccc(Br)cc2)C(=O)C(O)(c2ccc[nH]2)N1c1ccc(Br)cc1` (centres unmarked) [Example 211, 1,3-bis(4-bromophenyl)-5-hydroxy-5-(1H-pyrrol-2-yl)imidazolidine-2,4-dione]: the IC50 lay within 10 to 50 µM.
In the case of `COCC1(C)N(c2ccc(Cl)cc2)C(=O)N(c2ccc(Cl)cc2)C1(O)c1cccc(C#N)c1` (centres unmarked) [Compound 297, 3-(1,3-bis(4-chlorophenyl)-4-hydroxy-5-(methoxymethyl)-5-methyl-2-oxoimidazolidin-4-yl)benzonitrile], under setting [1], the concentration for half-maximal inhibition (IC50) was less than 1 µM.
For the compound `C[C@@]1(c2ccccc2)N(c2ccc(Cl)cc2)C(=O)N(c2ccc(Cl)cc2)[C@]1(O)c1ccccc1` [Compound 121-1, (4S,5S)-1,3-bis(4-chlorophenyl)-4-hydroxy-5-methyl-4,5-diphenylimidazolidin-2-one], the IC50 fell in the range of 10 to 50 µM.
Consider `Cc1ccc(N2C(=O)N(c3ccc(C)cc3)C(O)(c3cccc(OC(F)(F)F)c3)C23COC3)cc1` (centres unmarked) [Compound 284, 8-hydroxy-5,7-di-p-tolyl-8-(3-(trifluoromethoxy)phenyl)-2-oxa-5,7-diazaspiro[3.4]octan-6-one], for which the IC50 under setting [1] was less than 1 µM.
Consider `CC1(C)N(c2ccc(Br)cc2)C(=O)N(c2ccc(Br)cc2)C1(O)c1ccccc1` (centres unmarked) [Compound 120, 1,3-bis(4-bromophenyl)-4-hydroxy-5,5-dimethyl-4-phenylimidazolidin-2-one], for which the IC50 is less than 1 µM.
Still for that read-out and setting: the result for `CCC1(C)N(c2ccc(Cl)cc2)C(=O)N(c2ccc(Cl)cc2)C1(O)c1cccc(OC(F)(F)F)c1` (centres unmarked) [Example 163, 1,3-bis(4-chlorophenyl)-4-ethyl-5-hydroxy-4-methyl-5-(3-(trifluoromethoxy)phenyl)imidazolidin-2-one] reads less than 1 µM.
Still for that read-out and setting: the result for `CC(C)(C)c1cccc(C2(O)CN(c3ccc(Br)cc3)C(=O)N2c2ccc(Br)cc2)c1` (centres unmarked) [Compound 127, 1,3-bis(4-bromophenyl)-4-(3-(tert-butyl)phenyl)-4-hydroxyimidazolidin-2-one] reads 10 to 50 µM; that for `COC[C@@H]1N(c2ccc(Cl)cc2)C(=O)N(c2ccc(Cl)cc2)C1(O)c1cccc(OC(F)F)c1` (stereo partly drawn) [Compound 238-1, (5S)-1,3-bis(4-chlorophenyl)-4-(3-(difluoromethoxy)phenyl)-4-hydroxy-5-(methoxymethyl)imidazolidin-2-one], less than 1 µM; that for `Cc1csc(C2(O)C(C)N(c3ccc(Br)cc3)C(=O)N2c2ccc(Br)cc2)c1` (centres unmarked) [Compound 97, 1,3-bis(4-bromophenyl)-4-hydroxy-5-methyl-4-(4-methylthiophen-2-yl)imidazolidin-2-one], 1 to 10 µM.
In the case of `CC[C@@]1(C)N(c2ccc(C#N)cc2)C(=O)N(c2ccc(C#N)cc2)C1(O)c1cccc(OC(F)(F)F)c1` (stereo partly drawn) [Example 319-1, 4,4′-((4R)-4-ethyl-5-hydroxy-4-methyl-2-oxo-5-(3-(trifluoromethoxy)phenyl)imidazolidine-1,3-diyl)dibenzonitrile], the IC50 under setting [1] is less than 1 µM.
As for `Cc1ccc(N2C(=O)N(c3ccc(C#N)cc3)C3(CCC3)C2(O)c2cccc(OC(F)(F)F)c2)cc1` (centres unmarked) [Compound 279, 4-(8-hydroxy-6-oxo-7-(p-tolyl)-8-(3-(trifluoromethoxy)phenyl)-5,7-diazaspiro[3.4]octan-5-yl)benzonitrile], the IC50 under setting [1] is less than 1 µM.
Take `O=C1N(c2ccc(Cl)cc2)CC(O)(c2cccc(Cl)c2)N1c1ccc(Cl)cc1` (centres unmarked) [Example 39, 4-(3-chlorophenyl)-1,3-bis(4-chlorophenyl)-4-hydroxyimidazolidin-2-one]: the concentration for half-maximal inhibition (IC50) is less than 1 µM.
For the compound `COCc1c(-c2cccc(C(F)(F)F)c2)n(-c2ccc(Cl)cc2)c(=O)n1-c1ccc(Cl)cc1` [Example 41, 1,3-bis(4-chlorophenyl)-4-(methoxymethyl)-5-(3-(trifluoromethyl)phenyl)-1,3-dihydro-2H-imidazol-2-one], the concentration for half-maximal inhibition (IC50) is less than 1 µM.
Same read-out and setting: the result for `COc1ccc(C2(O)C(=O)N(c3ccc(Br)cc3)C(=O)N2c2ccc(Br)cc2)cc1` (centres unmarked) [Compound 144, 1,3-bis(4-bromophenyl)-5-hydroxy-5-(4-methoxyphenyl)imidazolidine-2,4-dione] reads 50 to 100 µM; that for `C[C@H]1N(c2ccc(Cl)cc2)C(=O)N(c2ccc(Cl)cc2)C1(O)c1cccc(C(C)(C)O)c1` (stereo partly drawn) [Compound 140-2, (5R)-1,3-bis(4-chlorophenyl)-4-hydroxy-4-(3-(2-hydroxypropan-2-yl)phenyl)-5-methylimidazolidin-2-one], 1 to 10 µM.
